Measurements reported in patent US20210100905A1, “APPLICATION OF COMPOUND OR TRADITIONAL CHINESE MEDICINE EXTRACT IN PREPARATION OF NUCLEIC ACID DELIVERY AGENT, AND RELATED PRODUCTS” (INSTITUTE OF BASIC MEDICAL SCIENCES CHINESE ACADEMY OF …, priority 2018, published 2021).
Entries after “also recorded” stand apart in the source; their conditions may differ.

How the values were obtained:
[1] = tested on: A549 cell (human lung adenocarcinoma cell); test: In vitro delivery of lipid nucleic acid mixture, RT-qPCR of intracellular small RNA; format: cell-based; details: for abundance of sRNA of different sequences in the cells (Taqman probe): FIG. 11A-C, sRNA 200 nM, 3 hours, compared with the control; for delivery of HJT-sRNA-m7 double-stranded RNA into A549 cells (real-time PCR): single lipid prepared by boiling or reverse evaporation method, RNA 100 nM, FIGS. 76, 91, 96, 99, 104, 106, 107; for delivery of HJT-sRNA-m7 single-stranded RNA into A549 cells (real-time PCR): single lipid, FIGS. 78, 92, 103; for delivery effect relative to that of RNAiMAX (real-time PCR): double-stranded HJT-sRNA-m7
Procedure: 3.1 NCI-N87 cell (gastric cancer cell), MRC-5 cell (lung fibroblast), A549 cell (lung cancer cell) were cultured to logarithmic growth phase, and then plated to a six-well plate at cell density of 1×10^6/2 mL medium/well; MRC-5 cell was cultured in Eagle's MEM medium (MEM, Gibco); A549 cell was cultured in Ham's F-12 medium (HyClone); NCI-N87 cell was cultured in RPMI-1640 medium (HyClone); followed by incubation overnight at 37° C., and the follow-up experiments were performed after the cells were attached to the walls.
3.3 After co-incubation with the small RNA for 3 hours, the cells were washed 2-3 times with PBS. The cells were harvested with TRIzol lysis buffer, and the total RNA was extracted. The abundance of small RNA that entered cells was detected by RT-qPCR, and the localization of RNA was detected by fluorescence in situ hybridization; protocols of each detection method were as follows:
1) The sRNA was reverse transcribed to cDNA: Reverse Transcription Kit (High-Capacity cDNA Reverse Transcription Kits, Applied Biosystems, cat. No. 4368813) was used to reverse transcribe sRNA into cDNA by stem-loop method, and the reverse transcription system was as follows: RNA template (150 ng/μl) 10 μl, 10×RT buffer, 2.0 μl, 25× dNTP Mix (100 mM) 0.8 μl, U6 RT stem-loop primer 2.0 μl, HJT-sRNA-RT-m7 stem-loop primer 2.0 μl, MultiScribe™ reverse transcriptase 1.0 μl, RNase inhibitor 1.0 μl, nuclease-free H2O 1.2 μl, loaded into a PCR reactor after brief centrifugation, the reaction conditions were as follows: (1) 25° C., 10 min; (2) 37° C., 120 min; (3) 85° C., 5 min; (4) 4° C., termination of the reaction. 20 μl RNase-free ddH2O was added to make up the final volume to 40 μl after the reaction. The stem-loop primer used in the reverse transcription process was synthesized by Beijing Tsingke Biotechnology Co., Ltd.
2) Quantitative PCR amplification reaction: the qPCR reaction system has a total volume of 10 μl, containing: 5 μL 2×SYBR Green Master Mix, 0.5 μl forward primer ([…]), 0.5 μl reverse primer (10 μM), 1 μl cDNA by reverse transcription, 3 RNase-free dH2O. LightCycler 480 fluorescence quantitative PCR instrument was used, and the PCR reaction conditions were: 95° C. for 5 min for pre-denaturation, followed by PCR amplification cycle: (1) 95° C., 10 s; (2) 55° C., 10 s; (3) 72° C. , 20 s; a total of 40 cycles; 40° C. for 10 s in the end to cool down. Both the forward and reverse primers of the amplification reaction were designed and synthesized by Beijing Tsingke Biotechnology Co., Ltd.
3) The relative expression level was calculated by 2-ΔCt method.
100 μl lipid in diethyl ether solution was prepared, and grouped according to the lipid numbers shown in Table 1 (the lipid concentrations are shown in the table below). To the lipid solution was added 20 μl nucleic acid solution (HJT sRNA or siRNA) at the volume ratio of 5:1, and sonicated for after 3 min. The diethyl ether was removed by evaporation at 55° C., and then 100 μl DEPC water was added for hydration to give nucleic acid lipid mixture.
100 μL of the nucleic acid solution (HJT sRNA or siRNA) was added to 2-5 μL of the lipid in chloroform (the concentration was shown in Table 1), mixed, and heated at 80-100° C. for 15-30 min to give nucleic acid lipid mixture.
3.1.1 MRC-5 cell (pulmonary embryonic fibroblast), A549 cell (human lung adenocarcinoma cell), Caco-2 cell (human colon adenocarcinoma cell) (purchased from the Cell Resource Center of the Institute of Basic Medical Sciences, Chinese Academy of Medical Sciences) were cultured to logarithmic growth phase, then plated into 12-well plates at a cell density of 6×10^5/1 mL medium/well; MRC-5 and Caco-2 cells were cultured in Eagle's MEM medium (MEM, Gibco); A549 cells were cultured in Ham's F-12 medium (HyClone); followed by incubation overnight at 37° C., and the follow-up experiments were performed after the cells were attached to the walls. […]

A549 cells = test: Digital PCR (ddPCR) detection of the efficiency of nucleic acid delivery by lipid; format: cell-based, human; details: boiling or reverse evaporation method; samples after 6 hours (No. 39: reverse evaporation, 6 and 12 hours)
From the text: 2.1 Experimental materials: A549 cells were purchased from the Cell Center of the Institute of Basic Medical Sciences, Chinese Academy of Medical Sciences, TRIzol lysis buffer was purchased from Sigma, High capacity cRNA Reverse Transcription Kit was purchased from ABI, USA, and the digital PCR related reagents were purchased from Bio-Rad USA.
2.2 Experimental method: the total cellular RNA was collected and extracted by TRIzol lysis buffer according to the above methods, and reverse transcribed to cDNA using High capacity cRNA Reverse Transcription Kit, and the cDNA from different groups was subject to digital PCR reaction. Refering to the QX200 Droplet Reader and QuantaSoft Software manual for the protocols, the results were analyzed using QuantaSoft software.
2.2 Experimental method: total RNA was collected and extracted by TRIzol lysis buffer according to the above method, and reverse transcribed to cDNA using High capacity cRNA Reverse Transcription Kit, and the cDNA from different groups was subjected to digital PCR reaction. Refer to the QX200 Droplet Reader and QuantaSoft Software manual for the protocols; the results were analyzed using QuantaSoft software.
2.2 Experimental method: Total RNA was collected and extracted by TRIzol lysis buffer according to the above method, and reverse transcribed to cDNA using TaqMan™ MicroRNA Reverse Transcription KitHigh, and the cDNA from different groups was subjected to digital PCR reaction. Refer to the QX200 Droplet Reader and QuantaSoft Software manual for the protocols; the results were analyzed using QuantaSoft software.
2.2 Experimental method: Total RNA was collected and extracted by TRIzol lysis buffer according to the above method, and reversed to cDNA using High capacity cRNA Reverse Transcription Kit, and the cDNA from different groups was subjected to digital PCR reaction. Refer to the QX200 Droplet Reader and QuantaSoft Software manual for the protocols; the results were analyzed using QuantaSoft software.

| SMILES | abundance of sRNA of different sequences in the cells (Taqman probe) ([1]; reverse evaporation method) | delivery of HJT-sRNA-m7 double-stranded RNA into A549 cells (real-time PCR) [1] | delivery of HJT-sRNA-m7 single-stranded RNA into A549 cells (real-time PCR) ([1]; boiling method) | delivery of HJT-sRNA-m7 dsRNA into A549 cells (ddPCR) (A549 cells) | delivery effect relative to that of RNAiMAX (real-time PCR) ([1]; reverse evaporation method) | delivery effect relative to that of RNAiMAX (real-time PCR) ([1]; boiling method) |
| --- | --- | --- | --- | --- | --- | --- |
| CCCCC/C=C\C/C=C\CCCCCCCC(=O)O[C@H](COC(=O)CCCCCCCCCCCCCCCCC)COP(=O)([O-])OCC[N+](C)(C)C [No. 11, trimethyl(2-{[(2R)-2-[(9Z, 12Z)-octadeca-9,12-dienoyloxy]-3-(octadecanoyloxy)propyl-phosphonato]oxy}ethyl) azanium] | could effectively facilitate nucleic acid molecules of different sequences entry into various cells |  |  |  |  |  |
| CCCCC/C=C\C/C=C\CCCCCCCC(=O)O[C@H](COC(=O)CCCCCCCCCCCCCCC)COP(=O)([O-])OCC[N+](C)(C)C [No. 12, (2-{[(2R)-3-(hexadecanoyloxy)-2-[(9Z,12Z)-octadeca-9,12-dienoyloxy]propylphosphonato]oxy}ethyl) trimethylazanium] | could effectively facilitate nucleic acid molecules of different sequences entry into various cells |  |  |  |  |  |
| CCCCCC/C=C\CCCCCCCC(=O)O[C@H](COC(=O)CCCCCCCCCCCCCCC)COP(=O)(O)OCCN [No. 38, (2-aminoethoxy) [(2R)-2-[(9Z)-hexadec-9-enoyloxy]-3-(hexadecanoyloxy)propoxy] phosphinic acid] |  | delivered double-stranded RNA into A549 and MRC-5 cells | the efficiency of delivery was much higher than that of RNAiMAX | could effectively deliver HJT-sRNA-m7 dsRNA into A549 cells |  |  |
| CCCCCCCC/C=C\CCCCCCCCCCCC(=O)O[C@H](COC(=O)CCCCCCCCCCCCCCC)COP(=O)(O)OCCN [No. 40, (2-aminoethoxy) [(2R)-2-[(13Z)-docos-13-enoyloxy]-3-(hexadecanoyloxy)propoxy] phosphinic acid] |  | delivered double-stranded RNA into A549 cells |  | could effectively deliver HJT-sRNA-m7 dsRNA into A549 cells | ½ |  |
| CCCCCCCCCCCCCCCCCCC[C@@H](O)[C@@H](N)CO [No. 41, Sphinganine (d22:0)] |  | delivered HJT-sRNA-m7 double-stranded RNA into A549 cells | delivered HJT-sRNA-m7 single-stranded RNA into A549 and MRC-5 cells | could effectively deliver HJT-sRNA-m7 dsRNA into A549 cells; also recorded: the boiling method had better effects than reverse evaporation method | significantly higher than that of RNAiMAX | about twice |
| CCCCCCCC/C=C\CCCCCCCCCCCCCC(=O)O[C@H](COC(=O)CCCCCCCCCCCCCC)COP(=O)(O)OCCN [No. 64, 1-pentadecanoyl-2-nervonoyl-sn-glycero-3-phospho-ethanolamine] |  | delivered HJT-sRNA-m7 double-stranded RNA into A549 cells |  |  |  | about 3 times that of RNAiMAX |
